ChEMBL document CHEMBL5291721, “A preclinical secondary pharmacology resource illuminates target-adverse drug reaction associations of marketed drugs” (Nat Commun, 2023)

How the values were obtained:
[1] = target: T1, Alpha-2A adrenergic receptor (Homo sapiens, UniProt P08913); assay type: functional, cell-based
T1 sequence (P08913 whole entry): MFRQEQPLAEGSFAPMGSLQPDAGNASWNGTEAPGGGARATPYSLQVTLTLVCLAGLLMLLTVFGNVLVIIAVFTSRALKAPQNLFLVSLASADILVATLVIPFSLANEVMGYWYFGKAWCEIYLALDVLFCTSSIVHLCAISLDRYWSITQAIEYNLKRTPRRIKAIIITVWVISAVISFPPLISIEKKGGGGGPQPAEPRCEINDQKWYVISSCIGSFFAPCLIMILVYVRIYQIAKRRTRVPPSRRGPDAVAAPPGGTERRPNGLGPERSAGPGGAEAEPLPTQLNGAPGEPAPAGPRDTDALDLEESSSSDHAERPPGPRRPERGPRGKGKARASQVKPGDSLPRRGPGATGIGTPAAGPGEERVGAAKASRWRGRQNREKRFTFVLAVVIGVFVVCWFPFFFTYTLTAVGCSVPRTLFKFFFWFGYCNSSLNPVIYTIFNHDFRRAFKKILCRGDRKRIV

[2] = target: T2, Equilibrative nucleoside transporter 1 (Homo sapiens, UniProt Q99808)
T2 sequence (Q99808 whole entry): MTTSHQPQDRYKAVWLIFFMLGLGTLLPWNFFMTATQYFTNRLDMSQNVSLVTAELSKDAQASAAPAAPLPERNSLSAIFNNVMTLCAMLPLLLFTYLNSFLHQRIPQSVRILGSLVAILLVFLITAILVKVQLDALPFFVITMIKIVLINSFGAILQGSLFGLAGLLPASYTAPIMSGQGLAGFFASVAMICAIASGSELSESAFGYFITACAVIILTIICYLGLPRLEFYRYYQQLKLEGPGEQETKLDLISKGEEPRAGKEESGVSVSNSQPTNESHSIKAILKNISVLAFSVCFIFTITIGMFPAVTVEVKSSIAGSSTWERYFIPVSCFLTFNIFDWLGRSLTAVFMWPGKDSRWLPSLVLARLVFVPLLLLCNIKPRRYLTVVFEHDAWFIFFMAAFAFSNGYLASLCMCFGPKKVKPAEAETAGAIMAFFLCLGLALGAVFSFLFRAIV

Vasopressin V1a receptor = Vasopressin V1a receptor (Homo sapiens, UniProt P37288)
Progesterone receptor = target: T3, Progesterone receptor (Homo sapiens, UniProt P06401); assay type: functional
T3 sequence (P06401 whole entry): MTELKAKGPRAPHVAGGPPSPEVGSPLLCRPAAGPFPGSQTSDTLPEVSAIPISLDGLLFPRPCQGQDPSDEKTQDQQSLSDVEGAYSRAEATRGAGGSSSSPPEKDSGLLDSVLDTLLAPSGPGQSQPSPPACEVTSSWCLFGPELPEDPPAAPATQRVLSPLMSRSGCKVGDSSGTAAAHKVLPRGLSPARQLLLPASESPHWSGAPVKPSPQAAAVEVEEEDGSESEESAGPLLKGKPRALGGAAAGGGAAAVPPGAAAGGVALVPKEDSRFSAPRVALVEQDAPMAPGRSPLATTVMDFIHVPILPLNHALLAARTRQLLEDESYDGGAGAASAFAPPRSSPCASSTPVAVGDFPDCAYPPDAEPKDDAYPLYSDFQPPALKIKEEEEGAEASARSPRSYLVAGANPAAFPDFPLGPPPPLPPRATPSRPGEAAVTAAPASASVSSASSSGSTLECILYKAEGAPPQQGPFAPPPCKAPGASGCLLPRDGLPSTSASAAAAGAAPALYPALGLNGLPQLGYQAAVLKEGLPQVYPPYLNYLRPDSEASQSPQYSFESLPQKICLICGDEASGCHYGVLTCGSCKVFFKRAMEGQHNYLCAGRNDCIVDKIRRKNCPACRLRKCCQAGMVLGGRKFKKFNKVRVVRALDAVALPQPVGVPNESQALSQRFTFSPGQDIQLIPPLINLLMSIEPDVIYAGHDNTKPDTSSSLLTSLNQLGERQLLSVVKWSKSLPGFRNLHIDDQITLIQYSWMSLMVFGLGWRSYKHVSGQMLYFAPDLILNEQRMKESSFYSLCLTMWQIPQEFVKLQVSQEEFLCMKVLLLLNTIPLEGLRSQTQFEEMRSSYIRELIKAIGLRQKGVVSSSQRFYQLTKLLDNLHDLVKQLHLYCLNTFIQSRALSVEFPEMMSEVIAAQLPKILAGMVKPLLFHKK

Cannabinoid receptor 1 = Cannabinoid receptor 1 (Homo sapiens, UniProt P21554); assay type: functional, cell-based
Adenosine receptor A3 = target: T4, Adenosine receptor A3 (Homo sapiens, UniProt P0DMS8)
T4 sequence (P0DMS8 whole entry): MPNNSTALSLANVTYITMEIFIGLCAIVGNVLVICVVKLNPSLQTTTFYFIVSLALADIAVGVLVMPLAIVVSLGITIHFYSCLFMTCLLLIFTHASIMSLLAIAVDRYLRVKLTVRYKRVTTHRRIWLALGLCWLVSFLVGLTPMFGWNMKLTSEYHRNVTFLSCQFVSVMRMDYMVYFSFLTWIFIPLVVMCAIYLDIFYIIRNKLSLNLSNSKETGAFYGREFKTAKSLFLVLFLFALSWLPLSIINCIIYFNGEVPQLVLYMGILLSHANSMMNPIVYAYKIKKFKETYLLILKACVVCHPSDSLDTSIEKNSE

[3] = target: Kappa-type opioid receptor (Homo sapiens, UniProt P41145)
Thromboxane A2 receptor = target: T5, Thromboxane A2 receptor (Homo sapiens, UniProt P21731)
T5 sequence (P21731 whole entry): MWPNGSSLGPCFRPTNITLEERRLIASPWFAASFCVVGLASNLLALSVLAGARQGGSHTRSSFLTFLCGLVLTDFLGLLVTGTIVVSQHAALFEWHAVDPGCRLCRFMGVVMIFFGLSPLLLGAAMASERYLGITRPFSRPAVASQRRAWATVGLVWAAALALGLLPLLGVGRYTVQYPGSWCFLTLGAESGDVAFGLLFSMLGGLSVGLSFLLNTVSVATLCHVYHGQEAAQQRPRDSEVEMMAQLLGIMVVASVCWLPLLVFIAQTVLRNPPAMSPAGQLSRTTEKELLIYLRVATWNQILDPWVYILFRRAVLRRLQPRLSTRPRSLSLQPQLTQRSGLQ
Further: assay procedure not described here.

Sequence of Kappa-type opioid receptor (P41145 whole entry): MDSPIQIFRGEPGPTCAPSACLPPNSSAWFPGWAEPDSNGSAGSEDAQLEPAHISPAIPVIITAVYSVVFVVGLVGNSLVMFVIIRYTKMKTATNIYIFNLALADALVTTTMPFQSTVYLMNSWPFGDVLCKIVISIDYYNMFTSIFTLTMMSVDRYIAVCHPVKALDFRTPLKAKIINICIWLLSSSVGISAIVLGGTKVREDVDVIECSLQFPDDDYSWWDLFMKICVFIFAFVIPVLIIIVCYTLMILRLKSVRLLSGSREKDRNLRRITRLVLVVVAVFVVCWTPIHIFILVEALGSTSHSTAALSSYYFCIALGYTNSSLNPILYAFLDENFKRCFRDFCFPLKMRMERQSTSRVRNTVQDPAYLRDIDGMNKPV
Sequence of Cannabinoid receptor 1 (P21554 whole entry): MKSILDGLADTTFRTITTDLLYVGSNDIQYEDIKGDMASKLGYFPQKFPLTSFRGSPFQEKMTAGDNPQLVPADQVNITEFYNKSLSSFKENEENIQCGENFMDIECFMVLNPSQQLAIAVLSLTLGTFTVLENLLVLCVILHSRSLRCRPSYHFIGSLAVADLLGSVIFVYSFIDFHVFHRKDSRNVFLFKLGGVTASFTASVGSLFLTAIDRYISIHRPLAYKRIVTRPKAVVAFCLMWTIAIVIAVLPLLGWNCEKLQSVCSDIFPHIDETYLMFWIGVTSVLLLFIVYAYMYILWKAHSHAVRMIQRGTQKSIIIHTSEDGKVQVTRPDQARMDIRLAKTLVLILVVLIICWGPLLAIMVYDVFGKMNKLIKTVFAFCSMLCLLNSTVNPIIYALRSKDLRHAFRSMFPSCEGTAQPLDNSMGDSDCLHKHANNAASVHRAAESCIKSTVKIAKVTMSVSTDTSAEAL
Sequence of Vasopressin V1a receptor (P37288 whole entry): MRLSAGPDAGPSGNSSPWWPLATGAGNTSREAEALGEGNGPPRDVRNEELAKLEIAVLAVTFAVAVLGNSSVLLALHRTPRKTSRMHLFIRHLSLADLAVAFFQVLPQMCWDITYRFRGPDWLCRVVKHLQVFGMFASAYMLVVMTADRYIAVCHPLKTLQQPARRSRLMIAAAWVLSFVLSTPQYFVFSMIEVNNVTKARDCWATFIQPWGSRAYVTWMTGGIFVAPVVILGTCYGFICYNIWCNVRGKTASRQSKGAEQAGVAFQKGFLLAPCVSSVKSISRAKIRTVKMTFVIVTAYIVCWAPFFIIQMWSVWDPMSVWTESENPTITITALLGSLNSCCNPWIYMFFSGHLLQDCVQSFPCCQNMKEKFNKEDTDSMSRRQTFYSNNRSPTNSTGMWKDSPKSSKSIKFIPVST

| SMILES | AC50 [1] [µM] | AC50 [2] [µM] | AC50 (Vasopressin V1a receptor) [µM] | AC50 (Progesterone receptor) [µM] | AC50 (Cannabinoid receptor 1) [µM] | AC50 (Adenosine receptor A3) [µM] | AC50 [3] [µM] | AC50 (Thromboxane A2 receptor) [µM] |
| --- | --- | --- | --- | --- | --- | --- | --- | --- |
| COc1ccccc1N1CCN(CCCNc2cc(=O)n(C)c(=O)n2C)CC1 | 11 | > 30 | > 30 | > 30 | > 30 | > 30 | > 30 | > 30 |
| CCC(C(=O)O)c1ccc(N2Cc3ccccc3C2=O)cc1 (configuration not stated) [INDOBUFEN] | > 30 | > 30 | > 30 | > 30 | > 30 | > 30 | > 30 | > 30 |
| CCCCCCOc1ccccc1C(N)=O [EXALAMIDE] | > 30 | > 30 | > 30 | > 30 | > 30 | > 30 | 9.3 | > 30 |
| CC(C)C(=O)c1c(C(C)C)nn2ccccc12 [IBUDILAST] | > 30 | > 30 | > 30 | > 30 | > 30 | > 30 | > 30 | > 30 |
| OC(CNCC(O)C1CCc2cc(F)ccc2O1)C1CCc2cc(F)ccc2O1 (configuration not stated) [NEBIVOLOL] | 8.1 | > 30 | > 30 | > 30 | 24 | 19 | 10 | > 30 |
| CC(CC(c1ccccc1)c1ccccc1)NC(C)(C)C (configuration not stated) [TERODILINE] | > 30 | > 30 | > 30 | > 30 | > 30 | > 30 | 8.4 | > 30 |
| CCOC(=O)[N-]c1cn(N2CCOCC2)n[o+]1 [MOLSIDOMINE] | > 30 | > 30 | > 30 | > 30 | > 30 | > 30 | > 30 | > 30 |
| O=C(O)CCCCCCNC1c2ccccc2CCc2ccccc21 [AMINEPTINE] | > 30 | > 30 | > 30 | > 30 | > 30 | > 30 | > 30 | > 30 |
| O=C(NCCNCC(O)COc1ccc(O)cc1)N1CCOCC1 (configuration not stated) [XAMOTEROL] | > 30 | > 30 | > 30 | > 30 | > 30 | > 30 | > 30 | > 30 |
| COc1ccccc1OCCNCC(O)c1ccc(C)c(S(N)(=O)=O)c1 (configuration not stated) [AMOSULALOL] | 9.1 | > 30 | > 30 | > 30 | > 30 | > 30 | > 30 | > 30 |
| CC(C[N+](C)(C)C)OC(N)=O (configuration not stated) [BETHANECHOL] | > 10 | > 10 | > 10 | > 10 | > 30 | > 10 | > 10 | > 10 |
| CC(=O)OCC(=O)[C@@]12N=C(C)O[C@@H]1C[C@H]1[C@@H]3CCC4=CC(=O)C=C[C@]4(C)[C@H]3[C@@H](O)C[C@@]12C [DEFLAZACORT] | > 30 | > 30 | > 30 | 3.7 | > 30 | > 30 | > 30 | > 30 |
| C=CCN1CCCC1CNC(=O)c1cc(S(N)(=O)=O)cc(OC)c1OC (configuration not stated) [VERALIPRIDE] | 26 | > 30 | > 30 | > 30 | > 30 | > 30 | > 30 | > 30 |
| COc1ccc(-c2ccc3cc(C(=O)O)ccc3c2)cc1C12CC3CC(CC(C3)C1)C2 | > 30 | > 30 | > 30 | > 30 | > 30 | > 30 | > 30 | > 30 |
